Measured values reported in patent US20040142952A1, “Triazoloquinazoline and pyrazolotriazolopyrimidine derivatives, medicinal compositions, adenosine a3 receptor affinity agents, ocular tension lowering agents, preparations for preventing and treating glaucoma and method of lowering ocular tension” (priority 2001, published 2004).

| Compound | melting point |
| --- | --- |
| CCCCc1nc2c(cnn2CCC)c2nc(-c3ccc(F)cc3)nn12 [Example 124, 5-n-butyl-2-(4-fluorophenyl)-7-n-propylpyrazolo[4,3-e]-1,2,4-triazolo[1,5-c]pyrimidine] | 105.5 to 106 °C |
| CCCCc1nc2c(cnn2CCC)c2nc(-c3ccc(Cl)cc3)nn12 [Example 126, 5-n-butyl-2-(4-chlorophenyl)-7-n-propylpyrazolo[4,3-e]-1,2,4-triazolo[1,5-c]pyrimidine] | 131.5 to 132 °C |
| CCCCc1nc2c(cnn2CC(=O)OCC)c2nc(-c3ccccc3)nn12 [Example 128, ethyl 2-(5-n-butyl-2-phenylpyrazolo[4,3-e]-1,2,4-triazolo[1,5-c]pyrimidin-7-yl)acetate] | 131.5 to 132.5 °C |
| CCCCc1nc2nn(CC(=O)OCC)cc2c2nc(-c3ccccc3)nn12 [Example 129, ethyl 2-(5-n-butyl-2-phenylpyrazolo[4,3-e]-1,2,4-triazolo[1,5-c]pyrimidin-8-yl)acetate] | 136 to 137 °C |
| CCCCc1nc2c(cnn2CC(=O)OCC)c2nc(-c3ccc(F)cc3)nn12 [Example 130, ethyl 2-[5-n-butyl-2-(4-fluorophenyl)pyrazolo[4,3-e]-1,2,4-triazolo[1,5-c]pyrimidin-7-yl]acetate] | 139.5 to 140.5 °C |
| CCCCc1nc2c(cnn2CCO)c2nc(-c3ccccc3)nn12 [Example 132, 5-n-butyl-7-(2-hydroxyethyl)-2-phenylpyrazolo[4,3-e]-1,2,4-triazolo[1,5-c]pyrimidine] | 132 to 133 °C |
| CCCCc1nc2c(cnn2CCO)c2nc(-c3ccc(F)cc3)nn12 [Example 134, 5-n-butyl-2-(4-fluorophenyl)-7-(2-hydroxyethyl)pyrazolo[4,3-e]-1,2,4-triazolo[1,5-c]pyrimidine] | 150.5 to 151.5 °C |
| CCCCc1nc2c(cnn2CCO)c2nc(-c3ccc(OC)cc3)nn12 [Example 140, 5-n-butyl-7-(2-hydroxyethyl)-2-(4-methoxyphenyl)pyrazolo[4,3-e]-1,2,4-triazolo[1,5-c]pyrimidine] | 147.5 to 148.5 °C |
| COc1ccc(-c2nc3c4cnnc-4nc(CCCC(=O)O)n3[nH]2)cc1 [Example 148, 4-[2-(4-methoxyphenyl)pyrazolo[4,3-e]-1,2,4-triazolo[1,5-c]pyrimidin-5-yl]butyric acid] | 247.5 to 249 °C |
| O=C(O)CCCc1nc2nncc-2c2nc(-c3ccc(Cl)cc3)[nH]n12 [Example 149, 4-[2-(4-chlorophenyl)pyrazolo[4,3-e]-1,2,4-triazolo[1,5-c]pyrimidin-5-yl]butyric acid] | 253.5 to 255.5 °C |
| Cc1ccc(-c2nc3c4cnnc-4nc(CCCC(=O)O)n3[nH]2)cc1 [Example 150, 4-[2-(4-methylphenyl)pyrazolo[4,3-e]-1,2,4-triazolo[1,5-c]pyrimidin-5-yl]butyric acid] | 249 to 251 °C |
| CCCCc1nc2c(cnn2CC(=O)O)c2nc(-c3ccccc3)nn12 [Example 151, 2-(5-n-butyl-2-phenylpyrazolo[4,3-e]-1,2,4-triazolo[1,5-c]pyrimidin-7-yl)acetic acid] | 271 to 272.5 °C |
| CCCCc1nc2nn(CC(=O)O)cc2c2nc(-c3ccccc3)nn12 [Example 152, 2-(5-n-butyl-2-phenylpyrazolo[4,3-e]-1,2,4-triazolo[1,5-c]pyrimidin-8-yl)acetic acid] | > 281 °C (dec.) |
| O=C(O)CCCc1nc2ccccc2c2nc(-c3ccccc3)nn12 [Example 153, 4-(2-phenyl-1,2,4-triazolo[1,5-c]quinazolin-5-yl)butyric acid] | 211 to 211.5 °C |
| O=C(O)CCCc1nc2ccccc2c2nc(-c3ccc(Br)cc3)nn12 [Example 154, 4-[2-(4-bromophenyl)-1,2,4-triazolo[1,5-c]quinazolin-5-yl]butyric acid] | 219 to 220 °C |
| O=C(O)CCCc1nc2ccccc2c2nc(-c3ccc(F)cc3)nn12 [Example 155, 4-[2-(4-fluorophenyl)-1,2,4-triazolo[1,5-c]quinazolin-5-yl]butyric acid] | 225 to 226 °C |
| O=C(O)CCCc1nc2ccccc2c2nc(-c3ccc(Cl)cc3)nn12 [Example 156, 4-[2-(4-chlorophenyl)-1,2,4-triazolo[1,5-c]quinazolin-5-yl]butyric acid] | 227 to 228 °C |
| CCCCCc1nc2ccccc2c2nc(-c3ccc(O)cc3)nn12 [Example 157, 2-(4-hydroxyphenyl)-5-n-pentyl-1,2,4-triazolo[1,5-c]quinazoline] | 214 to 215 °C |

Second part, the compound after the results:

| melting point | Compound |
| --- | --- |
| 106.5 to 107.5 °C | CCCCc1nc2nn(CCC)cc2c2nc(-c3ccc(F)cc3)nn12 [Example 125, 5-n-butyl-2-(4-fluorophenyl)-8-n-propylpyrazolo[4,3-e]-1,2,4-triazolo[1,5-c]pyrimidine] |
| 137 to 138 °C | CCCCc1nc2nn(CCC)cc2c2nc(-c3ccc(Cl)cc3)nn12 [Example 127, 5-n-butyl-2-(4-chlorophenyl)-8-n-propylpyrazolo[4,3-e]-1,2,4-triazolo[1,5-c]pyrimidine] |
| 164 to 165 °C | CCCCc1nc2nn(CC(=O)OCC)cc2c2nc(-c3ccc(F)cc3)nn12 [Example 131, ethyl 2-[5-n-butyl-2-(4-fluorophenyl)pyrazolo[4,3-e]-1,2,4-triazolo[1,5-c]pyrimidin-8-yl]acetate] |
| 160.5 to 162 °C | CCCCc1nc2nn(CCO)cc2c2nc(-c3ccccc3)nn12 [Example 133, 5-n-butyl-8-(2-hydroxyethyl)-2-phenylpyrazolo[4,3-e]-1,2,4-triazolo[1,5-c]pyrimidine] |
| 202 to 203 °C | CCCCc1nc2nn(CCO)cc2c2nc(-c3ccc(F)cc3)nn12 [Example 135, 5-n-butyl-2-(4-fluorophenyl)-8-(2-hydroxyethyl)pyrazolo[4,3-e]-1,2,4-triazolo[1,5-c]pyrimidine] |
| 134 to 136 °C | CCCCc1nc2c(cnn2CCO)c2nc(-c3ccc(C)cc3)nn12 [Example 136, 5-n-butyl-7-(2-hydroxyethyl)-2-(4-methylphenyl)pyrazolo[4,3-e]-1,2,4-triazolo[1,5-c]pyrimidine] |
| 171 to 173 °C | CCCCc1nc2nn(CCO)cc2c2nc(-c3ccc(C)cc3)nn12 [Example 137, 5-n-butyl-8-(2-hydroxyethyl)-2-(4-methylphenyl)pyrazolo[4,3-e]-1,2,4-triazolo[1,5-c]pyrimidine] |
| 164 to 164.5 °C | CCCCc1nc2c(cnn2CCO)c2nc(-c3ccc(Cl)cc3)nn12 [Example 138, 5-n-butyl-2-(4-chlorophenyl)-7-(2-hydroxyethyl)pyrazolo[4,3-e]-1,2,4-triazolo[1,5-c]pyrimidine] |
| 189 to 190.5 °C | CCCCc1nc2nn(CCO)cc2c2nc(-c3ccc(Cl)cc3)nn12 [Example 139, 5-n-butyl-2-(4-chlorophenyl)-8-(2-hydroxyethyl)pyrazolo[4,3-e]-1,2,4-triazolo[1,5-c]pyrimidine] |
| 178 to 179 °C | CCCCc1nc2nn(CCO)cc2c2nc(-c3ccc(OC)cc3)nn12 [Example 141, 5-n-butyl-8-(2-hydroxyethyl)-2-(4-methoxyphenyl)pyrazolo[4,3-e]-1,2,4-triazolo[1,5-c]pyrimidine] |
| 127 to 128 °C | CCCCc1nc2nn(CC)cc2c2nc(-c3ccc(OC)cc3)nn12 [Example 142, 5-n-butyl-8-ethyl-2-(4-methoxyphenyl)pyrazolo[4,3-e]-1,2,4-triazolo[1,5-c]pyrimidine] |
| 128 to 129 °C | CCCCc1nc2nn(CC)cc2c2nc(-c3ccc(C)cc3)nn12 [Example 143, 5-n-butyl-8-ethyl-2-(4-methylphenyl)pyrazolo[4,3-e]-1,2,4-triazolo[1,5-c]pyrimidine] |
| 146 to 147 °C | CCCCc1nc2nn(CC)cc2c2nc(-c3ccc(F)cc3)nn12 [Example 144, 5-n-butyl-8-ethyl-2-(4-fluorophenyl)pyrazolo[4,3-e]-1,2,4-triazolo[1,5-c]pyrimidine] |
| 141 to 142 °C | CCCCc1nc2nn(CC)cc2c2nc(-c3ccc(Cl)cc3)nn12 [Example 145, 5-n-butyl-2-(4-chlorophenyl)-8-ethylpyrazolo[4,3-e]-1,2,4-triazolo[1,5-c]pyrimidine] |
| 112 to 112.5 °C | CCCCc1nc2nn(CCC)cc2c2nc(-c3ccc(OC)cc3)nn12 [Example 146, 5-n-butyl-2-(4-methoxyphenyl)-8-n-propylpyrazolo[4,3-e]-1,2,4-triazolo[1,5-c]pyrimidine] |
